Test results: patent US10568976B2, “3,6,9, 15-tetraaza-bicyclo [9.3.1 ]pentadeca-1(14), 11(15), 12-triene based compounds and their application as ligands of essential metal ion based MRI and 52MN based PET contrast agents” (DEBRECENI EGYETEM, priority 2015, dated 2020)

What was measured:
[1] = Protonation constants of the ligands (equilibrium study); format: physicochemical; conditions: 25° C., 0.15M NaCl
Description: (§1) During the physico-chemical tests of tPC2AM^Pyp and tPC2AM^Pro compounds synthesized according to Example 1 and 2, their protonation constant, as well as equilibrium behaviour and kinetic inertism of their Mn(II) complexes was studied in detail, and the characteristic relaxivity values of the complexes were determined in the presence and absence of HSA (Human Serum Albumin), at 25 and 37° C. and physiological pH. All studies were performed in the presence of 0.15 M NaCl, the same concentration as that of the electrolyte under physiological conditions.
(§2) The results of equilibrium study are summarized in Table 1, in addition to the protonation constants, total basicity of ligands and stability constants of their Mn(II) complexes, the pMn value calculated for complexes are also represented in the table.

[2] = Stability constants of Mn(II) complexes and calculated pMn (equilibrium study); format: physicochemical; conditions: 25° C., 0.15M NaCl; for pMn: calculated from equilibrium constants at pH = 7.4 and cMn = cL = 10^−5 M
Description: as §1, §2
Based on the pMn values represented in Table 1 (calculated using the equilibrium constants at pH=7.4 and cMn=cL=10^−5 M), it can be concluded that the studied Mn(II) complexes are formed in 100% at physiological pH, which is an essential aspect of the practical use.

[3] = literature value, 'under the same conditions'; cited from earlier work
[4] = cited from earlier work

SMILES: O=C(O)C1CCCN1C(=O)CN1CCNCCN(CC(=O)N2CCCC2C(=O)O)Cc2cccc(n2)C1 (stereo not shown) [tPC2AM^Pro]
- logK1 (protonation constant) [1]: 9.80(2)
- logK2 (protonation constant) [1]: 7.96(4)
- logK3 (protonation constant) [1]: 3.65(5)
- logK4 (protonation constant) [1]: 2.26(4)
- ΣlogKi^H (total basicity) [1]: 23.67
- logKMnL (stability constant of Mn(II) complex) [2]: 13.77(3)
- pMn [2]: 7.85

SMILES: O=C(CN1CCNCCN(CC(=O)N2CCCCC2)Cc2cccc(n2)C1)N1CCCCC1 [tPC2AM^Pyp]
- logK1 (protonation constant) [1]: 11.31(1)
- logK2 (protonation constant) [1]: 3.94(3)
- ΣlogKi^H (total basicity) [1]: 15.26
- logKMnL (stability constant of Mn(II) complex) [2]: 13.09(2)
- pMn [2]: 7.09

SMILES: CNC[C@H](O)[C@@H](O)[C@H](O)[C@H](O)CO.O=C([O-])CN1CCN(CC(=O)[O-])CCN(CC(=O)O)CCN(CC(=O)[O-])CC1.[Gd+3] [DOTAREM]
- r1 relaxivity [3]: 3.83 mM⁻¹ s⁻¹

SMILES: CNC[C@H](O)[C@@H](O)[C@H](O)[C@H](O)CO.CNC[C@H](O)[C@@H](O)[C@H](O)[C@H](O)CO.O=C([O-])CN(CCN(CC(=O)[O-])CC(=O)O)CCN(CC(=O)[O-])CC(=O)O.[Gd+3] [MAGNEVIST]
- Gd(III) ion released, calculated on the basis of experiments at 25° C. ([4]; 25° C.): 0.5%
- Gd(III) ion released during in vivo dissociation ([4]; 37° C.): 2.2%
- r1 relaxivity [3]: 4.02 mM⁻¹ s⁻¹
